The supplement of paper PMC13207355
Counter-ions that a name gives are not always drawn.

Tests used:
Details in all cases: exposure time: 72 h
FT3469 [1] = normal neural stem cell line; experiment: surviving fraction (nuclei count normalised to DMSO); higher = more cells surviving (less toxic)
E28 [2] = patient-derived glioblastoma stem cells of classical subtype; experiment: as above
E31 [3] = patient-derived glioblastoma stem cells of proneural subtype; experiment: as above
E34 [4] = patient-derived glioblastoma stem cells of proneural subtype; experiment: as above
E57 [5] = patient-derived glioblastoma stem cells of mesenchymal subtype; experiment: as above
E21 [6] = patient-derived glioblastoma stem cells of mesenchymal subtype; experiment: as above
E13 [7] = patient-derived glioblastoma stem cells of classical subtype; experiment: as above
FT3469 [8] = experiment: phenotypic distance (Euclidean, principal components) from DMSO controls (arbitrary units); higher = stronger morphological change
E28 [9] = experiment: as above
E31 [10] = experiment: as above
E34 [11] = experiment: as above
E57 [12] = experiment: as above
E21 [13] = experiment: as above
E13 [14] = experiment: as above
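Wherever phenotypic distance (Euclidean, principal components) from DMSO controls is given: cell Painting imaging in 384-well plates, CellProfiler features reduced to at least 20 principal components, Euclidean distance versus same-plate DMSO vehicle wells (0.1% v/v), median over six images per well.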
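Wherever surviving fraction (nuclei count normalised to DMSO) is given: nuclei counted by high-content imaging of Hoechst-stained cells in laminin-coated 384-well plates, relative to 0.1% DMSO vehicle wells, with staurosporine as cell-death control.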

CN[C@@H]1[C@@H](O)[C@@H](O[C@@H]2[C@@H](O)[C@H](O[C@H]3OC(CN)=CC[C@H]3N)[C@@H](N)C[C@H]2N)OC[C@]1(C)O [Sisomicin sulfate]
Details | phenotypic distance | surviving fraction
E13 [7], 4.1 nM | – | 1.01
E13 [7], 12.3 nM | – | 0.994
E13 [7], 37 nM | – | 0.923
E13 [7], 111.1 nM | – | 0.949
E13 [7], 333.3 nM | – | 0.983
E13 [7], 1000 nM | – | 1.1
E13 [7], 3000 nM | – | 0.959
E13 [14], 4.1 nM | 0.369 | –
E13 [14], 12.3 nM | 0.462 | –
E13 [14], 37 nM | 0.472 | –
E13 [14], 111.1 nM | 0.486 | –
E13 [14], 333.3 nM | 0.393 | –
E13 [14], 1000 nM | 0.501 | –
E13 [14], 3000 nM | 0.645 | –
E21 [6], 4.1 nM | – | 0.929
E21 [6], 12.3 nM | – | 1.06
E21 [6], 37 nM | – | 0.919
E21 [6], 111.1 nM | – | 0.966
E21 [6], 333.3 nM | – | 1.03
E21 [6], 1000 nM | – | 0.992
E21 [6], 3000 nM | – | 0.864
E21 [13], 4.1 nM | 0.673 | –
E21 [13], 12.3 nM | 0.75 | –
E21 [13], 37 nM | 0.611 | –
E21 [13], 111.1 nM | 0.334 | –
E21 [13], 333.3 nM | 0.705 | –
E21 [13], 1000 nM | 0.424 | –
E21 [13], 3000 nM | 1.26 | –
E28 [2], 4.1 nM | – | 0.849
E28 [2], 12.3 nM | – | 0.982
E28 [2], 37 nM | – | 0.892
E28 [2], 111.1 nM | – | 0.985
E28 [2], 333.3 nM | – | 0.937
E28 [2], 1000 nM | – | 0.984
E28 [2], 3000 nM | – | 0.902
E28 [9], 4.1 nM | 0.802 | –
E28 [9], 12.3 nM | 0.276 | –
E28 [9], 37 nM | 0.807 | –
E28 [9], 111.1 nM | 0.454 | –
E28 [9], 333.3 nM | 0.891 | –
E28 [9], 1000 nM | 0.259 | –
E28 [9], 3000 nM | 0.736 | –
E31 [3], 4.1 nM | – | 0.953
E31 [3], 12.3 nM | – | 0.893
E31 [3], 37 nM | – | 0.996
E31 [3], 111.1 nM | – | 0.985
E31 [3], 333.3 nM | – | 0.92
E31 [3], 1000 nM | – | 0.979
E31 [3], 3000 nM | – | 0.914
E31 [10], 4.1 nM | 0.521 | –
E31 [10], 12.3 nM | 0.711 | –
E31 [10], 37 nM | 0.705 | –
E31 [10], 111.1 nM | 0.391 | –
E31 [10], 333.3 nM | 0.642 | –
E31 [10], 1000 nM | 0.692 | –
E31 [10], 3000 nM | 0.63 | –
E34 [4], 4.1 nM | – | 0.838
E34 [4], 12.3 nM | – | 0.957
E34 [4], 37 nM | – | 0.811
E34 [4], 111.1 nM | – | 0.957
E34 [4], 333.3 nM | – | 0.867
E34 [4], 1000 nM | – | 0.88
E34 [4], 3000 nM | – | 0.901
E34 [11], 4.1 nM | 1.06 | –
E34 [11], 12.3 nM | 0.852 | –
E34 [11], 37 nM | 0.946 | –
E34 [11], 111.1 nM | 0.273 | –
E34 [11], 333.3 nM | 2.48 | –
E34 [11], 1000 nM | 3.23 | –
E34 [11], 3000 nM | 0.712 | –
E57 [5], 4.1 nM | – | 0.973
E57 [5], 12.3 nM | – | 0.964
E57 [5], 37 nM | – | 0.884
E57 [5], 111.1 nM | – | 0.95
E57 [5], 333.3 nM | – | 0.927
E57 [5], 1000 nM | – | 0.919
E57 [5], 3000 nM | – | 0.966
E57 [12], 4.1 nM | 0.637 | –
E57 [12], 12.3 nM | 0.658 | –
E57 [12], 37 nM | 0.794 | –
E57 [12], 111.1 nM | 0.322 | –
E57 [12], 333.3 nM | 0.595 | –
E57 [12], 1000 nM | 0.802 | –
E57 [12], 3000 nM | 0.686 | –
FT3469 [1], 4.1 nM | – | 0.936
FT3469 [1], 12.3 nM | – | 1.08
FT3469 [1], 37 nM | – | 1.04
FT3469 [1], 111.1 nM | – | 0.924
FT3469 [1], 333.3 nM | – | 1.08
FT3469 [1], 1000 nM | – | 1.08
FT3469 [1], 3000 nM | – | 1.02
FT3469 [8], 4.1 nM | 0.895 | –
FT3469 [8], 12.3 nM | 0.713 | –
FT3469 [8], 37 nM | 0.549 | –
FT3469 [8], 111.1 nM | 0.66 | –
FT3469 [8], 333.3 nM | 0.495 | –
FT3469 [8], 1000 nM | 0.637 | –
FT3469 [8], 3000 nM | 0.793 | –
